Experimental data: patent US20240376094A2, “SELECTIVE BCL-XL PROTAC COMPOUNDS AND METHODS OF USE” (Les Laboratoires Servier, priority 2021, published 2024)

Tests used:
[1] = tested on: EBC-1 lung cancer cell line; experiment: EBC-1 cell proliferation, CellTiter-Glo assay; assay type: cell-based; details: Homo sapiens, 120 h; Ebc-1 cell viability, CTG assay, 5 days of treatment; read-out: CTG 5 day Ebc1 GI50
Description: (§1) The ability of the BCL-xL degrader low molecular weight compounds to inhibit cell proliferation and survival was assessed using the Promega CellTiter-Glo® proliferation assay on the EBC-1 lung cancer cell line (RCB1965, obtained from RIKEN.) The cells were cultured in media that is optimal for their growth at 5% CO2, 37° C. in a tissue culture incubator. Prior to seeding for the proliferation assay, the cells were split at least 2 days before the assay to ensure optimal growth density. On the day of seeding, cells were lifted off tissue culture flasks using 0.25% trypsin. Cell viability and cell density were determined using a cell counter (Vi-Cell XR Cell Viability Analyzer, Beckman Coulter). Cells with higher than 85% viability were seeded in white clear bottom 384-well plates (Greiner cat #781098) at a density of 1000 cells per well in 50 μL of standard growth media. Plates were incubated at 37° C. overnight in a tissue culture incubator.
The BCL-xL degrader low molecular weight compounds were prepared to desired concentrations. A series of 10 dilutions were made for each prepared compound. The prepared compounds were then added to the cells resulting in final concentrations of 0.508 nM-10 μM. An acoustic transfer device (Echo555, Beckman Coulter) was used to add the compounds to the cells. Each treatment was tested in triplicate assay plates. Plates were incubated at 37° C. overnight or for 5 days in a tissue culture incubator. The ability of the compounds to inhibit cell proliferation and survival was assessed using the Promega CellTiter-Glo® proliferation assay. Plates were incubated at room temperature for 20 minutes to stabilize luminescent signals prior to reading using a multimode plate reader (PHERAstar FSX Microplate Reader, BMG Labtech).
To evaluate the effect of the compound treatments, luminescent counts of untreated cells were taken the day after seeding (Day 0 readings), and after 5 days of treatment (Day 5 readings). The Day 5 readings of the untreated cells were compared to the Day 0 readings. Assays with at least one cell doubling during the incubation period were considered valid. To evaluate the effect of the drug treatments, luminescent counts from wells containing untreated cells (100% viability) were used to normalize treated samples. The concentrations of treatment required to inhibit 50% of cell growth or survival ([…]) were calculated using a four parameter logistic regression equation.

HiBiT-tagged BCL-xL = biological target: T1, HiBiT-tagged BCL-xL (Homo sapiens, UniProt Q07817); experiment: NCI-H1650 BCL-xL protein levels, Nano-Glo HiBiT Lytic Detection; assay type: cell-based; details: NCI-H1650 expressing HiBiT-tagged BCL-xL, overnight incubation, read-out: Bcl-xl HIBIT NCIH1650 DC50
T1 construct: expressed in transfected cells; host or cells: NCI-H1650 (ATCC No. CRL-5883), engineered HiBiT cell line
T1 sequence (Q07817 whole entry): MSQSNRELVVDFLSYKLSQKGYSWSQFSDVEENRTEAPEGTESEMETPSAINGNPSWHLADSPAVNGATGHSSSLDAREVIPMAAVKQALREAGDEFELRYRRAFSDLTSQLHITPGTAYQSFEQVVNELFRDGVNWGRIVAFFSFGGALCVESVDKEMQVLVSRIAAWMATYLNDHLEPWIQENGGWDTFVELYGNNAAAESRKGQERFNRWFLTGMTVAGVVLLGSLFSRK
Description: as §1, with “degrade BCL-xL protein” for “inhibit cell proliferation and survival”, “Nano-Glo® HiBiT Lytic Detection System. The NCI-H1650 (ATCC No. CRL-5883) was engineered to express HiBiT-tagged BCL-xL. The NCI-H1650 HiBiT” for “CellTiter-Glo® proliferation assay on the EBC-1 lung cancer”, “was” for “(RCB1965, obtained from RIKEN.) The cells were”, “protein level” for “proliferation”, “5000” for “1000”, “30” for “50”
The BCL-xL degrader low molecular weight compounds were prepared to desired concentrations. A series of 10 dilutions were made for each prepared compound. The prepared compounds were then added to the cells resulting in final concentrations of 0.508 nM-10 μM. An acoustic transfer device (Echo555, Beckman Coulter) was used to add the compounds to the cells. Each treatment was tested in triplicate assay plates. Plates were incubated at 37° C. overnight in a tissue culture incubator.
BCL-xL degradation was assessed through the addition of 30 μL of Nano-Glo® HiBiT Lytic Reagent (Promega, cat #N3040), a reagent which lyses cells and contains a furimazine substrate and the large subunit (LgBiT) used in NanoLuc® Binary Technology. The LgBiT subunit having high affinity to a HiBiT-tagged protein will bind HiBiT, if present, resulting in complex formation of a luminescent NanoBiT® enzyme. This reaction will emit a luminescent signal proportional to the amount of HiBiT-tagged BCL-xL present in the cell lysate. Plates were incubated at room temperature for 20 minutes to stabilize luminescent signals prior to reading using a luminescence reader (PHERAstar FSX Microplate Reader, BMG Labtech).
To evaluate the effect of the drug treatments, luminescent counts from wells containing untreated cells (100% HiBiT-tagged BCL-xL) were used to normalize treated samples. The concentrations of treatment required to inhibit 50% were calculated using a four parameter logistic regression equation.

GI50 [1] [nM] | DC50 (HiBiT-tagged BCL-xL) [nM] | SMILES
58 | 2 | Cc1ncsc1-c1ccc([C@H](C)NC(=O)[C@@H]2C[C@@H](O)CN2C(=O)[C@@H](NC(=O)CCOCCOCCOCCN(C)C(=O)c2nc(N3CCCc4c3nnc(Nc3nc5ccccc5s3)c4C)ccc2-c2cnn(CC34CC5(C)CC(C)(C3)CC(OCCN3CCCC3)(C5)C4)c2C)C(C)(C)C)cc1 [Example 160, 6-(3-(benzo[d]thiazol-2-ylamino)-4-methyl-6,7-dihydropyrido[2,3-c]pyridazin-8(5H)-yl)-3-(1-(((1r,3R,5S,7s)-3,5-dimethyl-7-(2-(pyrrolidin-1-yl)ethoxy)adamantan-1-yl)methyl)-5-methyl-1H-pyrazol-4-yl)-N—((S)-14-((2S,4R)-4-hydroxy-2-(((S)-1-(4-(4-methylthiazol-5-yl)phenyl)ethyl)carbamoyl)pyrrolidine-1-carbonyl)-15,15-dimethyl-12-oxo-3,6,9-trioxa-13-azahexadecyl)-N-methylpicolinamide]
8 | 0.4 | Cc1ncsc1-c1ccc([C@H](C)NC(=O)[C@@H]2C[C@@H](O)CN2C(=O)C(NC(=O)CCCCCCCCN(C)C(=O)c2nc(N3CCCc4c3nnc(Nc3nc5ccccc5s3)c4C)ccc2-c2cnn(CC34CC5(C)CC(C)(C3)CC(OCCN3CCCC3)(C5)C4)c2C)C(C)(C)C)cc1 (stereo partly drawn) [Example 161, 6-(3-(benzo[d]thiazol-2-ylamino)-4-methyl-6,7-dihydropyrido[2,3-c]pyridazin-8(5H)-yl)-3-(1-(((1r,3R,5S,7s)-3,5-dimethyl-7-(2-(pyrrolidin-1-yl)ethoxy)adamantan-1-yl)methyl)-5-methyl-1H-pyrazol-4-yl)-N-(9-(((S)-1-((2S,4R)-4-hydroxy-2-(((S)-1-(4-(4-methylthiazol-5-yl)phenyl)ethyl)carbamoyl)pyrrolidin-1-yl)-3,3-dimethyl-1-oxobutan-2-yl)amino)-9-oxononyl)-N-methylpicolinamide]
222 | > 1670 | Cc1ncsc1-c1ccc([C@H](C)NC(=O)[C@@H]2C[C@@H](O)CN2C(=O)[C@@H](NC(=O)[C@H]2CC[C@H](NC(=O)c3nc(N4CCCc5c4nnc(Nc4nc6ccccc6s4)c5C)ccc3-c3cnn(CC45CC6(C)CC(C)(C4)CC(OCCN4CCCC4)(C6)C5)c3C)CC2)C(C)(C)C)cc1 [Example 162, 6-(3-(benzo[d]thiazol-2-ylamino)-4-methyl-6,7-dihydropyrido[2,3-c]pyridazin-8(5H)-yl)-3-(1-(((1r,3R,5S,7s)-3,5-dimethyl-7-(2-(pyrrolidin-1-yl)ethoxy)adamantan-1-yl)methyl)-5-methyl-1H-pyrazol-4-yl)-N-((1S,4R)-4-(((S)-1-((2S,4R)-4-hydroxy-2-(((S)-1-(4-(4-methylthiazol-5-yl)phenyl)ethyl)carbamoyl)pyrrolidin-1-yl)-3,3-dimethyl-1-oxobutan-2-yl)carbamoyl)cyclohexyl)picolinamide]
22 | 6 | Cc1ncsc1-c1ccc([C@H](C)NC(=O)[C@@H]2C[C@@H](O)CN2C(=O)[C@@H](NC(=O)C[C@H]2CC[C@@H](NC(=O)c3nc(N4CCCc5c4nnc(Nc4nc6ccccc6s4)c5C)ccc3-c3cnn(CC45CC6(C)CC(C)(C4)CC(OCCN4CCCC4)(C6)C5)c3C)CC2)C(C)(C)C)cc1 [Example 163, 6-(3-(benzo[d]thiazol-2-ylamino)-4-methyl-6,7-dihydropyrido[2,3-c]pyridazin-8(5H)-yl)-3-(1-(((1r,3R,5S,7s)-3,5-dimethyl-7-(2-(pyrrolidin-1-yl)ethoxy)adamantan-1-yl)methyl)-5-methyl-1H-pyrazol-4-yl)-N-((1R,4S)-4-(2-(((S)-1-((2S,4R)-4-hydroxy-2-(((S)-1-(4-(4-methylthiazol-5-yl)phenyl)ethyl)carbamoyl)pyrrolidin-1-yl)-3,3-dimethyl-1-oxobutan-2-yl)amino)-2-oxoethyl)cyclohexyl)picolinamide]
